What was measured:
Sendai virus [1] = test: Circulating antibody unit (HIU) in serum by hemagglutination inhibition (HI) reaction after vaccine administration; type: in vivo, mouse; settings: 500 CIU vaccine nasally
Procedure: The provitamins prepared to have a composition in the following Formulation Examples 1 to 4 were individually or in combination (hereinafter referred to as “provitamin”) dissolved in a phosphate buffered saline (PBS) to a concentration of 0.5% and then continuously administered perorally or peritoneally to a mouse (ICR, 3 weeks old, male) from two weeks before the administration of a vaccine. The sample was administered such that APM per day was 80 mg/kg-body weight in the case of peroral administration and the dose per day was 40 mg/kg-body weight in the case of injection.
The vaccine used here was TR-5 strain which is an attenuated strain of Sendai virus, and 500 CIU (cell infectious unit) thereof was nasally administered to a mouse under ether anesthesia. That is, a stock solution (10^6 CIU/ml) of TR-5 strain was diluted with PBS and 50 μl of each sample was nasally administered. After the administration of vaccine, the serum was sampled in aging (inoculation day, after 7 days, after 14 days and after 21 days) and the antiviral antibody unit in the serum was measured by the hemagglutination inhibition (HI) reaction which inhibits the hemagglutination (HA) reaction.
The HA reaction is a reaction where a virus particle or an HA antigen adsorbs to an erythrocyte and combines the erythrocytes with each other to cause hemagglutination. In the measurement of the HA unit, 2-fold step dilution series of a virus solution are prepared, a constant amount of erythrocytes is added to each dilution and after the passing of a predetermined time, the agglutination image is examined. The HA unit (HAU) is the reciprocal of the highest dilution number in a test tube showing agglutination positive. The HA reaction is inhibited by previously adding an antiviral antibody to the virus solution. This is the HI reaction.
To 25 μl of a serum subjected to 2-fold step dilution, 25 μl of a virus solution adjusted to 16 HAU was added and allowed to stand at room temperature for 1 hour. Subsequently, 50 μl of a 0.5% chicken erythrocyte suspension was added and allowed to stand at 4° C. for 1 hour. Thereafter, the HI unit was determined.

[2] = tested on: Fibrosarcoma SMT-5 (target cell); test: Activity of sampled macrophages against target cells (3H-thymidine uptake); type: cell-based, mouse; settings: 500 CIU vaccine, macrophages sampled day 14, target:effector 1:7, 24 hours
Procedure: (§1) The administration of provitamin and inoculation of a vaccine (500 CIU) were performed in the same manner as in Example 1. 14 Days after the inoculation of the vaccine, macrophages were sampled from the abdominal cavity of the mouse and the number of macrophages was counted through a microscope. Also, the activity of the macrophage was examined as follows. Fibrosarcoma SMT-5 (target cell) and the sampled macrophages (effector cell) were mixed at a ratio of 1:7 and cultured in CO2 medium for 24 hours. 8 Hours before the completion of culture, ^3H-thymidine was added and the amount of ^3H-thymidine taken up into the residual target cells was measured by a liquid scintillation counter. From the value obtained, the activity of macrophage was determined. The amount of ^3H-thymidine in the control group was the amount of ^3H-thymidine taken up into the target cells where the macrophages were not added.

macrophages = test: Number of macrophages sampled from the abdominal cavity 14 days after vaccine inoculation; type: in vivo, mouse; settings: 500 CIU vaccine, 14 days after inoculation
Procedure: as §1

[3] = tested on: Sendai virus strongly toxic strain; test: Survival rate after nasal infection with Sendai virus strongly toxic strain; type: in vivo, mouse; settings: challenge 15 LD50 at day 14, 20 days after infection
Procedure: The administration of provitamin and inoculation of a vaccine were performed in the same manner as in Example 1, and 14 days after the inoculation of attenuated vaccine, Sendai virus strongly toxic strain (1.7×10^7 CIU/ml) was subjected to 15-hold dilution in PBS. Subsequently, 70 μl of the dilution (about 8×10^4 CIU:15 LD50) was nasally infected to a mouse under ether anesthesia and 20 days after the infection with the strongly toxic strain, the survival rate of mice was examined.
The test solution was step-diluted and each dilution was used for a group of animals. The life and death were examined and the point of dilution degree where 50% of death was recognized was designated as LD50.

Sendai virus [4] = test: Secretory IgA induction by Sendai virus live vaccine, trachea and bronchia wash, ELISA; type: in vivo, mouse; settings: 500 CIU vaccine, 14 days after inoculation
Procedure: The administraion of provitamin and inoculation of a vaccine were performed in the same manner as in Example 1. 14 Days after the inoculation of vaccine, the mouse was sacrificed, the trachea and bronchia were twice washed with 1 ml of PBS (phosphate buffered saline), and IgA recovered in PBS was measured by the enzyme linked immunosorbent assay (ELISA).
Sendai virus was fixed on a plate and reacted with a test solution. Thereafter, peroxidase marker anti-mouse IgA immunoglobulin was reacted and then phenylenediamine 2HCl was added to cause coloration. OD 492 was measured and from the calibration curve obtained based on the standard IgA, the IgA amount in the test solution was determined.

[5] = peritoneal administration of provitamin 40 mg/kg per day, day 0
[6] = peritoneal administration of provitamin 40 mg/kg per day, day 7
[7] = peritoneal administration of provitamin 40 mg/kg per day, day 14
[8] = peritoneal administration of provitamin 40 mg/kg per day, day 21
[9] = peroral administration of provitamin 80 mg/kg per day, day 0 after inoculation
[10] = peroral administration of provitamin 80 mg/kg per day, day 7
[11] = peroral administration of provitamin 80 mg/kg per day, day 14
[12] = peroral administration of provitamin 80 mg/kg per day, day 21
[13] = peroral, amount of vaccine inoculated 0 CIU
[14] = peroral, amount of vaccine inoculated 50 CIU
[15] = peroral, amount of vaccine inoculated 500 CIU

Compound	HIU (Sendai virus [1]; [5]) [HIU]	HIU (Sendai virus [1]; [6]) [HIU]	HIU (Sendai virus [1]; [7]) [HIU]	HIU (Sendai virus [1]; [8]) [HIU]	HIU (Sendai virus [1]; [9]) [HIU]	HIU (Sendai virus [1]; [10]) [HIU]	HIU (Sendai virus [1]; [11]) [HIU]	HIU (Sendai virus [1]; [12]) [HIU]	Macrophage Activity ([2]; peritoneal route)	Macrophage Activity ([2]; peroral route)	Macrophage/Body (macrophages; peritoneal route)	Macrophage/Body (macrophages; peroral route)	Survival Rate ([3]; peritoneal, amount of vaccine inoculated 0 CIU)	Survival Rate ([3]; peritoneal, amount of vaccine inoculated 50 CIU)	Survival Rate ([3]; peritoneal, amount of vaccine inoculated 500 CIU)	Survival Rate [3, 13]	Survival Rate [3, 14]	Survival Rate [3, 15]	IgA (Sendai virus [4]; peritoneal route) [U/μg]	IgA (Sendai virus [4]; peroral route) [U/μg]
O=C1O[C@H]([C@@H](O)CO)C(O)=C1OP(=O)(O)O [Formulation Example 1, L-ascorbic acid-2-monophosphate]	<16	16	32	64	<16	<16	16	64	22.1	20.5	9.1 × 10^6	6.8 × 10^6	0/10	8/10	8/10	0/10	9/10	9/10	69	51
O=C1O[C@H]([C@@H](O)CO)C(O)=C1OP(=O)(O)O [Formulation Example 2, L-ascorbic acid-2-monophosphate]	<16	<16	32	64	<16	<16	16	64		20.2		6.5 × 10^6				1/10	9/10	10/10		69

From patent publication US20030035812A1, “Immune enhancement compositions and use thereof” (priority 2000, published 2003)
